Target: T1, MdtM (Escherichia coli, UniProt P39386)
T1 construct: full-length 410 residues, pBAD/Myc-His A vector (C-terminal Myc-His tag), overproduced in E. coli LMG194, purified in DDM detergent
Assay: biochemical
Format: binding
From the text: intrinsic tryptophan fluorescence quenching on MdtM

T1 sequence (P39386 whole entry): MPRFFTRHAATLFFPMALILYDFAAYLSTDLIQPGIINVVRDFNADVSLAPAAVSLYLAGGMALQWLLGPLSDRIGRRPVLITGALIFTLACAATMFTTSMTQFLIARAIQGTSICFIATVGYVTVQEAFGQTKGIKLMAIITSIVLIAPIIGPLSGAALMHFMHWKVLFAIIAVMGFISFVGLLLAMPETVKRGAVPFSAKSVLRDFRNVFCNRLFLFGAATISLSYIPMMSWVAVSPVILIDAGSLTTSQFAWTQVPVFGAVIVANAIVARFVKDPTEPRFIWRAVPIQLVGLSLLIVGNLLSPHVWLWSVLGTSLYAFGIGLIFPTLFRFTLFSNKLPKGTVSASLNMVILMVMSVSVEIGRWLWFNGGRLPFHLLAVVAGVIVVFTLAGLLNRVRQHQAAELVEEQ

SMILES | Kd [nM]
c1ccc([P+](c2ccccc2)(c2ccccc2)c2ccccc2)cc1 [TPP+] | 400 ± 145
O=C(N[C@H](CO)[C@H](O)c1ccc([N+](=O)[O-])cc1)C(Cl)Cl [chloramphenicol, 2,2-dichloro-N-[2-hydroxy-1-hydroxymethyl-2-(4-nitro-phenyl)-ethyl]-acetamide] | 22 ± 4

Source: PMC4785361, “Insight into determinants of substrate binding and transport in a multidrug efflux protein” (Scientific Reports, 2016)
